Measurements: publication PMC7263640 (Journal of visualized experiments : JoVE, 2019)

Target: T1, Olfr1377 (Mus musculus, UniProt B2RQ46)
T1 sequence (B2RQ46 1-307): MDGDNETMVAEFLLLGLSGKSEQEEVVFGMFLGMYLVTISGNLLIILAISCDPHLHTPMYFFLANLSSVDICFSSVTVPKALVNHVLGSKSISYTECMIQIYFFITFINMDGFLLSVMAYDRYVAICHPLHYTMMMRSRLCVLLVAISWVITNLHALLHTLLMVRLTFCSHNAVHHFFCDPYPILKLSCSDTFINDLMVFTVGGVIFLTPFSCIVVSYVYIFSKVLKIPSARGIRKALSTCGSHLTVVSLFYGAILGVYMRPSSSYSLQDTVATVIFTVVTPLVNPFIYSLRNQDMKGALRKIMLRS
Assay: GloSensor cAMP luminescence in Hana3A cells, vapor-phase odorant
Format: cell-based

EC50: 161 µM
Compound: CC(=O)c1ccccc1 [acetophenone]
